Publication PMC3319004 (Science Translational Medicine, 2011)

Columns and labels:
[1] = system: NB1643 (R1275Q) xenografts; experiment: In vivo tumor growth inhibition, NB1643 xenografts; parameters: species or system CB17 scid mice
NBSD (F1174L) xenografts = experiment: In vivo tumor growth inhibition, NBSD xenografts; parameters: species or system CB17 scid mice
[2] = system: SH-SY5Y (F1174L) xenografts
F1174L ALK-TKD = F1174L ALK-TKD (Homo sapiens, UniProt Q9UM73, F1174L)
R1275Q xenografts = experiment: In vivo activity of GSK1838705A in xenografts
[3] = 100mg/kg/day oral gavage for 4 weeks

C[C@@H](Oc1cc(-c2cnn(C3CCNCC3)c2)cnc1N)c1c(Cl)ccc(F)c1Cl [crizotinib] was tested, and the tumor response [1, 3] was “tumor regression within three weeks”, the “tumor response over the fourth week of dosing” value ([1]; 100mg/kg/day oral gavage, p < 0.0001) was “complete regression was sustained” and the tumor volume (NBSD (F1174L) xenografts; 100mg/kg/day oral gavage for 4 weeks, p = 0.29) was “failed to reduce tumor volume”. The “extension of time to reach the study endpoint” value (NBSD (F1174L) xenografts; 100mg/kg/day, mean, p = 0.04) was 3.7 days, the tumor regression [2, 3] was “No tumor regression was observed” and the “extension of time taken to reach the study endpoint (tumor volume ≥ 1.5 cm^3)” value ([2]; 100mg/kg/day, average, p < 0.0001) was 7.7 days.

CN[C@@H]1C[C@H]2O[C@@](C)([C@@H]1OC)n1c3ccccc3c3c4c(c5c6ccccc6n2c5c31)C(=O)NC4 [staurosporine] was tested, and the “in vitro inhibition of ALK-TKD, F1174L compared with R1275Q-mutated ALK-TKD” value (F1174L ALK-TKD) was “impaired by the F1174L mutation”.

CNC(=O)c1c(F)cccc1Nc1nc(Nc2cc3c(cc2OC)CCN3C(=O)CN(C)C)nc2[nH]ccc12 [GSK1838705A] was tested, and the “in vivo activity in xenografts” value (R1275Q xenografts) was “only showed significant in vivo activity against R1275Q xenografts”.
